Reference: patent US20220257571A1, “INHIBITOR OF MAP KINASE INTERACTING SERINE/THREONINE KINASE 1 (MNK1) AND MAP KINASE INTERACTING SERINE/THREONINE KINASE 2 (MNK2), CANCER THERAPY AND THERAPEUTIC COMBINATIONS” (FUNPACIÓ HOSPITAL UNIVERSITARI VALL D'HEBRON - INSTITUT DE …, priority 2019, published 2022)

Experiments:
MNK1 = target: T1, MNK1 (Homo sapiens, UniProt Q9BUB5); experiment: radiometric kinase assay (33PanQinase Activity Assay), MNK1; type: biochemical
T1 construct: purchased Proqinase
Experimental: The kinase activity of the compound was measured by a radiometric kinase assay (^33PanQinase® Activity Assay) carried out by Proqinase (www.proqinase.com).
The assays were carried out in 96-well FlashPlates™ by PerkinElmer (Boston, Mass., USA) with a reaction volume of 50 μl. The reaction cocktail was pipetted in 4 steps: (1) 20 μl buffer, (2) 5 μl ATP solution (in H2O), (3) 5 μl compound (in 10% DMSO) and (4) 20 μl enzyme/substrate mixture. Lastly, the cocktail contained 70 mM HEPES-NaOH pH 7.5, 3 mM MgCl2, 3 mM MnCl2, 3 μM sodium orthovanadate, 1.2 mM DTT, 50 μg/ml PEG20000, ATP (1 μM for MNK1 and 0.3 μM for MNK2), [γ-^33P]-ATP (approx. […] per well), protein kinase (variable amounts depending on the batch) and substrate (2 μg/50 μl).
Reaction cocktails were incubated at 30° C. for 60 minutes. The reaction was stopped with 50 μl of 2% H3PO4 (v/v), the plates were sucked, they were washed twice with 200 μl of 0.9% NaCl (w/v) and the incorporation of ^33Pi (MicroBeta microplate scintillation counter, Wallac) was determined. All assays were performed with a Beckman Coulter/SAGIAN™ system.
The residual activity (in %) for each well of a particular plate was calculated using the following formula (wherein high control is the kinase activity in absence of an inhibitor and low control is the radioactivity value of the substrate in absence of a kinase).
To screen compounds, the residual activity of both kinases was analysed after treatment with 10 μM of the compounds.
To study selectivity, residual activity was measured at 1 μM from a 320-kinase panel.

[1] = system: IMR90 cells, non-transformed fibroblasts; experiment: cell growth (crystal violet) and cell death (PI/Hoechst) in IMR90 cells; type: cell-based
Experimental: (§1) Commercially available MDA-MB-231, MDA-MB-468, MCF7 and A375M, IMR90 (IMR-90 (ATCC® CCL-186TH) cells were grown at 37° C. and 5% CO2 in DMEM medium (Dulbecco's Modified Eagle Medium, 4.5 g/I glucose; 30 mg/I L-Glutamine (Gibco)) supplemented with 10% foetal bovine serum, 100 U/ml penicillin and 100 μg/ml streptomycin.
Knock-out mice of the EB1 target kinases MNK1 and MNK2 are viable (Ueda et al 2004; PMID: 15254222). […] Cell growth was measured by crystal violet assay. Cell death was determined by Propidium Iodid (PI)/Hoechst staining and the ratio of dead cell (PI positive) among all analyzed cells (Hoechst) was determined. Cis-platin treatment was included as positive control. […] Minimal side effects for patients are therefore predictable.

[2] = system: PD-L1 in MDA-MB-231 cells; experiment: PD-L1 levels by western blot in MDA-MB-231 cells; type: cell-based, human
Experimental: MDA-MB-231 cells were treated for 48 h with the indicated concentrations of the inhibitors. DMSO was used as vehicle control. Protein extracts were prepared and western blot analysis were carried out. Data are depicted in FIG. 10.

MCF7 cells = experiment: cell growth of MCF7 cells with tamoxifen (crystal violet); type: cell-based; details: combination with tamoxifen
Experimental: as §1
Cell growth in the presence of EB1, tamoxifen or the combination of both inhibitors was measured by crystal violet. Data were normalized to the vehicle control.

[3] = system: eIF4E phosphorylation in MCF10 cells; experiment: inhibition of eIF4E phosphorylation by Western Blot in MCF10 cells; type: cell-based; details: Homo sapiens; immortalised non-tumour breast cells (MCF10)
Experimental: (§2) MCF10A cells (also commercially available) were grown in DMEM/F-12 medium (Dulbecco's Modified Eagle Medium: 3.125 g/L D-Glucosa, 365 mg/L L-Glutamine, Nutrient Mixture F-12 (Gibco)) supplemented with 10% FBS, 100 U/ml penicillin, 100 μg/ml streptomycin, 1% L-Glutamine (Cambrex), 10 ng/ml choleric toxin (Sigma-Aldrich), 0.005 mg/ml insulin (Sigma), 100 ng/ml hydrocortisone (Sigma) and 20 ng/ml EGF (Epidermal growth factor, Sigma).
Inhibition of eIF4E phosphorylation was quantified by Western Blot. Cells were seeded in 60 mm plates (700,000 cells for 24 h, 500,000 cells for 48 h and 300,000 cells for 72 h).
After 24 h, the treatments were added. The stocks of compounds were prepared in […] at a concentration 200 times more concentrated than the treatment concentration. Thus, in all cases, the final concentration of DMSO in the medium was 0.5%.
After incubation, proteins were removed and Western Blot was performed. […] The samples were centrifuged at 15,000 g and the supernatant was quantified by the Bradford method. […] Selectivity against MNK was analysed with ERK, p-ERK, MNK1, p-MNK1, 4EBP1 and p-4EBP1 antibodies.

MCF10 cells = experiment: in vitro proliferation assay (crystal violet), MCF10; type: cell-based; details: non-tumour cells MCF10, concentrations necessary to inhibit MNK activity
Experimental: as §2
(§3) In 96-well plates, 5000 cells were seeded for each condition. After 24 h, the cells were treated with the compound at the corresponding concentration. The stocks of compounds were prepared in 100% DMSO at a concentration 200 times more concentrated than the treatment concentration. Thus, in all cases, the final concentration of DMSO in the medium is 0.5%. After incubation, the medium was removed and the cells were fixed with 4% PFA (100 μl per well) for 30 minutes. Two washes with PBS were performed.
(§4) Cells were stained with crystal violet (0.5% in EtOH): 100 μl were added to each well, stirred for 15 minutes, washed with water and left to dry. The content of each well was dissolved in 200 μl of 15% AcOH and the absorbance thereof was measured at 595 nm.

MDA-MB-231 cells = experiment: in vitro proliferation assay (crystal violet), MDA-MB-231; type: cell-based, human; details: tumour cells MDA-MB-231, concentrations necessary to inhibit MNK activity
Experimental: as §1, §3, §4

T1 sequence (Q9BUB5 whole entry): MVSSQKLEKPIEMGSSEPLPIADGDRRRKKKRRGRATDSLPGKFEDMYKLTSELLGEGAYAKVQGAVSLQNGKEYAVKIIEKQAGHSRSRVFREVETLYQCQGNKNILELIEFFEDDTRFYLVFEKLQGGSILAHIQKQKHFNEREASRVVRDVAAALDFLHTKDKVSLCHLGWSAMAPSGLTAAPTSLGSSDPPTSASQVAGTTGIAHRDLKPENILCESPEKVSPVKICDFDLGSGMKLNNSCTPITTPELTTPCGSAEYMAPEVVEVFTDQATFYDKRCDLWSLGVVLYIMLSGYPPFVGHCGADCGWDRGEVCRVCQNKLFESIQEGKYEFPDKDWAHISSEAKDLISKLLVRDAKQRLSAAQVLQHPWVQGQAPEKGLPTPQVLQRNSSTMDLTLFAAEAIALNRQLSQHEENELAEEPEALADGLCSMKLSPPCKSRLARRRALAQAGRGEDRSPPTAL

Structure (SMILES): Nc1n[nH]c2nc(-c3ccccc3)cc(-c3ccccc3)c12 [EB1, 4,6-diphenyl-1H-pyrazolo[3,4-b]pyridin-3-amine]
- remaining activity at 10 µM (MNK1; after treatment with 10 μM compound, ATP 1 μM, read-out: residual activity of MNK1): 14%
- inhibition at 1 µM (MNK1; at 1 uM, kinase panel): 48%
- cell death ([1]; IMR90, PI/Hoechst staining): does not induce cell death
- cell growth arrest ([1]; IMR90, crystal violet): does not cause significant cell growth arrest
- levels of PD-L1 ([2]; MDA-MB-231, 48 h): reduces levels of PD-L1
- potency on PD-L1 compared with eFT508 and CGP57380 ([2]; at comparable inhibition rates of eIF4E phosphorylation): equally potent or superior
- sensitivity of MCF7 cells to tamoxifen (MCF7 cells): increased sensitivity to tamoxifen
- EC50 [3]: 0.7 µM
- effect on cell growth (MCF10 cells): does not affect the cell growth
- effect on cell growth (MDA-MB-231 cells): does not affect the cell growth
